From patent US8461328B2, “Tricyclic heterocyclic compounds, compositions and methods of use thereof” (Genentech, Inc., priority 2010, dated 2013)

What was measured:
Assay type in all cases: biochemical
JAK3 = target: T1, JAK3 (Homo sapiens, UniProt P52333); test: JAK3 inhibition (Table 4); details: read-out: JAK3 Ki
T1 construct: made in house; host or cells: SF9 insect cells (baculovirus)

JAK2 = target: T2, JAK2 (Homo sapiens, UniProt O60674); test: JAK2 inhibition (Table 4); details: read-out: JAK2 Ki
T2 construct: made in house; host or cells: SF9 insect cells (baculovirus)

TYK2 = target: T3, TYK2 (Homo sapiens, UniProt P29597); test: TYK2 inhibition (Table 4)
T3 construct: made in house; host or cells: SF9 insect cells (baculovirus)
T3 sequence (P29597 873-1187): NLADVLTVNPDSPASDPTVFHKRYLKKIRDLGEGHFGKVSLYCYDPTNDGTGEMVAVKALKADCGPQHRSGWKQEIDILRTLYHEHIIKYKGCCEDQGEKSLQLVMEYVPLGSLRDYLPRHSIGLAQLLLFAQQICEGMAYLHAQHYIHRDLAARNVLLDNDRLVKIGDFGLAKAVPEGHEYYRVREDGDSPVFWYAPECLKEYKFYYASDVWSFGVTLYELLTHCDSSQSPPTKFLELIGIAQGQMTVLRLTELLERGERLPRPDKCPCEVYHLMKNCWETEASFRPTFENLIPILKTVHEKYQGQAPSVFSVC

JAK1 = target: T4, JAK1 (Homo sapiens, UniProt P23458); test: JAK1 inhibition (Table 4); details: read-out: JAK1 Ki
T4 construct: made in house; host or cells: SF9 insect cells (baculovirus)
T4 sequence (P23458 852-1154): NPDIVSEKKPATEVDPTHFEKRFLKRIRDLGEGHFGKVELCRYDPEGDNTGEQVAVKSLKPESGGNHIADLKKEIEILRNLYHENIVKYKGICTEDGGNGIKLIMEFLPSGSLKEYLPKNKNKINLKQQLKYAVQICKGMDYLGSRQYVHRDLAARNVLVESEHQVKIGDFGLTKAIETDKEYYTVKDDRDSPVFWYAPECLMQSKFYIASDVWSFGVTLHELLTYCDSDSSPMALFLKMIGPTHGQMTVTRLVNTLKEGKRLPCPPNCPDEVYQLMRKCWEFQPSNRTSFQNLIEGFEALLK

T2 sequence (O60674 812-1132): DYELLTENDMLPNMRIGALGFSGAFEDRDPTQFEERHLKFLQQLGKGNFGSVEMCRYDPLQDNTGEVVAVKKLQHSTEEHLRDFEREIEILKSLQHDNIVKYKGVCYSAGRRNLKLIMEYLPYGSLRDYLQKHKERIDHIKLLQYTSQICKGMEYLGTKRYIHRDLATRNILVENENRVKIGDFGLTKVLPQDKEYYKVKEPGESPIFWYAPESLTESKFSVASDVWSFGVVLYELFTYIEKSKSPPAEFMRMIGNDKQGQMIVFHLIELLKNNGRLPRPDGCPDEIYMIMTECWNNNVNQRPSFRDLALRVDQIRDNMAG
T1 sequence (P52333 783-1124): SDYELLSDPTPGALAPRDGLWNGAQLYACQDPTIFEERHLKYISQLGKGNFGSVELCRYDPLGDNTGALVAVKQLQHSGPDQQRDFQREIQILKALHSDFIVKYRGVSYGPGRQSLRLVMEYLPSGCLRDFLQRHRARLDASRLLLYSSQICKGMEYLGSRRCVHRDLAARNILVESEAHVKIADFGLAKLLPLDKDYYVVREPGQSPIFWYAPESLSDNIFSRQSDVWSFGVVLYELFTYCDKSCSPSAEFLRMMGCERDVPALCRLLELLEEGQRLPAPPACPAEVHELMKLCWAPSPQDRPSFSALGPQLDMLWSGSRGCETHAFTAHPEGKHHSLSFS

Row | Structure (SMILES) | Ki (JAK3) [µM] | Ki (JAK2) [µM] | Ki (TYK2) [µM] | Ki (JAK1) [µM]
1 | O=C(Cc1ccccc1)N1CC[C@@H](n2cnc3cnc4[nH]ccc4c32)C1 [Example 430, 2-Phenyl-1-[(R)-3-(6H-1,3,5,6-tetraaza-as-indacen-1-yl)-pyrrolidin-1-yl]-ethanone] | 1.24 | 0.162 | 0.507 | 0.0589
2 | N#Cc1ccc(CC(=O)N2CC[C@@H](n3cnc4cnc5[nH]ccc5c43)C2)cc1 [Example 431, 4-{2-Oxo-2-[(R)-3-(6H-1,3,5,6-tetraaza-as-indacen-1-yl)-pyrrolidin-1-yl]-ethyl}-benzonitrile] | 3.52 | 0.175 | 1.15 | 0.0371
3 | O=S(=O)(c1ccccc1)N1CC[C@@H](n2cnc3cnc4[nH]ccc4c32)C1 [Example 432, 1-((R)-1-Benzenesulfonyl-pyrrolidin-3-yl)-1,6-dihydro-1,3,5,6-tetraaza-as-indacene] | 1.28 | 0.0179 | 0.0732 | 0.0197
4 | N#Cc1cccc(S(=O)(=O)N2CC[C@@H](n3cnc4cnc5[nH]ccc5c43)C2)c1 [Example 434, 3-[(R)-3-(6H-1,3,5,6-Tetraaza-as-indacen-1-yl)-pyrrolidine-1-sulfonyl]-benzonitrile] | 1.2 | 0.00622 | 0.0325 | 0.00567
5 | CN(C)CCC(=O)N1CCC(n2cnc3cnc4[nH]ccc4c32)CC1 [Example 439, 3-Dimethylamino-1-[4-(6H-1,3,5,6-tetraaza-as-indacen-1-yl)-piperidin-1-yl]-propan-1-one] | 1.11 | 0.437 | 1.98 | 0.0842
6 | O=C(CN1CCCC1=O)N1CCC(n2cnc3cnc4[nH]ccc4c32)CC1 [Example 440, 1-{2-Oxo-2-[4-(6H-1,3,5,6-tetraaza-as-indacen-1-yl)-piperidin-1-yl]-ethyl}-pyrrolidin-2-one] | 0.844 | 0.115 | 0.713 | 0.0432
7 | O=C(CN1CCCCC1=O)N1CCC(n2cnc3cnc4[nH]ccc4c32)CC1 [Example 441, 1-{2-Oxo-2-[4-(6H-1,3,5,6-tetraaza-as-indacen-1-yl)-piperidin-1-yl]-ethyl}-piperidin-2-one] | 1.53 | 0.179 | 0.832 | 0.0558
8 | O=S(=O)(C1CCCC1)N1CCC(n2cnc3cnc4[nH]ccc4c32)CC1 [Example 443, 1-(1-Cyclopentanesulfonyl-piperidin-4-yl)-1,6-dihydro-1,3,5,6-tetraaza-as-indacene] | 0.419 | 0.0139 | 0.0473 | 0.00811
9 | Cc1noc(C)c1S(=O)(=O)N1CCC(n2cnc3cnc4[nH]ccc4c32)CC1 [Example 447, 1-[1-(3,5-Dimethyl-isoxazole-4-sulfonyl)-piperidin-4-yl]-1,6-dihydro-1,3,5,6-tetraaza-as-indacene] | 0.477 | 0.0212 | 0.0844 | 0.0164
10 | Cc1nn(C)cc1S(=O)(=O)N1CCC(n2cnc3cnc4[nH]ccc4c32)CC1 [Example 448, 1-[1-(1,3-Dimethyl-1H-pyrazole-4-sulfonyl)-piperidin-4-yl]-1,6-dihydro-1,3,5,6-tetraaza-as-indacene] | 0.873 | 0.0357 | 0.268 | 0.0344
11 | CS(=O)(=O)c1ccc(S(=O)(=O)N2CCC(n3cnc4cnc5[nH]ccc5c43)CC2)cc1 [Example 450, 1-(1-(4-(methylsulfonyl)phenylsulfonyl)piperidin-4-yl)-1,6-dihydroimidazo[4,5-d]pyrrolo[2,3-b]pyridine] | 0.659 | 0.0102 | 0.0328 | 0.00306
12 | CC(C)(C#N)C(=O)N1CCC(n2cnc3cnc4[nH]ccc4c32)CC1 [Example 451, 2,2-Dimethyl-3-oxo-3-[4-(6H-1,3,5,6-tetraaza-as-indacen-1-yl)-piperidin-1-yl]-propionitrile] | 0.428 | 0.0361 | 0.325 | 0.0366
13 | O=C([C@@H]1COCCN1)N1CCC(n2cnc3cnc4[nH]ccc4c32)CC1 [Example 455, (S)-Morpholin-3-yl-[4-(6H-1,3,5,6-tetraaza-as-indacen-1-yl)-piperidin-1-yl]-methanone] | 0.514 | 0.0785 | 0.262 | 0.0185
14 | C[C@@H](O)c1nc2cnc3[nH]ccc3c2n1[C@@H]1CCCOC1 [Example 456, (R)-1-[(R)-1-(Tetrahydro-pyran-3-yl)-1,6-dihydro-1,2,3,5,6-tetraaza-as-indacen-2-yl]-ethanol] | 0.346 | 0.354 | 0.176 | 0.0701
15 | c1cc2c(ncc3nnn(C4CCOCC4)c32)[nH]1 [Example 467, 1-(Tetrahydro-pyran-4-yl)-1,6-dihydro-1,2,3,5,6-pentaaza-as-indacene] | 0.429 | 0.0778 | 0.23 | 0.0323
16 | c1cncc(Cc2nc3cnc4[nH]ccc4c3n2C2CCOCC2)c1 [Example 469, 2-Pyridin-3-ylmethyl-1-(tetrahydro-pyran-4-yl)-1,6-dihydro-1,3,5,6-tetraaza-as-indacene] | 0.475 | 1.45 | 1.77 | 0.215
17 | Cc1n[nH]c(C)c1CCc1nc2cnc3[nH]ccc3c2n1C1CCOCC1 [Example 471, 2-[2-(3,5-Dimethyl-1H-pyrazol-4-yl)-ethyl]-1-(tetrahydro-pyran-4-yl)-1,6-dihydro-1,3,5,6-tetraaza-as-indacene] | 0.727 | 0.781 | 0.793 | 0.278
18 | Cc1cc(Cc2nc3cnc4[nH]ccc4c3n2C2CCOCC2)on1 [Example 472, 2-(3-Methyl-isoxazol-5-ylmethyl)-1-(tetrahydro-pyran-4-yl)-1,6-dihydro-1,3,5,6-tetraaza-as-indacene] | 0.405 | 0.694 | 0.389 | 0.0573
19 | O=C1CN(Cc2nc3cnc4[nH]ccc4c3n2C2CCOCC2)CCN1 [Example 473, 4-[1-(Tetrahydro-pyran-4-yl)-1,6-dihydro-1,3,5,6-tetraaza-as-indacen-2-ylmethyl]-piperazin-2-one] | 2.01 | 1.7 | 1.7 | 0.447
20 | O=C(O)[C@H]1C[C@@H](n2cnc3cnc4[nH]ccc4c32)C1 [Example 484, 3-(6H-1,3,5,6-Tetraaza-as-indacen-1-yl)-cyclobutanecarboxylic acid] | 0.323 | 0.181 | 1.29 | 0.441

These reach a lower Ki (JAK3). Values come first.

Row | Ki (JAK3) [µM] | Ki (JAK2) [µM] | Ki (TYK2) [µM] | Ki (JAK1) [µM] | Structure (SMILES)
21 | 0.226 | 0.0281 | 0.265 | 0.0321 | O=S(=O)(Cc1ccccc1)N1CC[C@@H](n2cnc3cnc4[nH]ccc4c32)C1 [Example 435, 1-((R)-1-Phenylmethanesulfonyl-pyrrolidin-3-yl)-1,6-dihydro-1,3,5,6-tetraaza-as-indacene]
22 | 0.21 | 0.0125 | 0.0977 | 0.0089 | N#Cc1cccc(CN2CC[C@@H](n3cnc4cnc5[nH]ccc5c43)C2)c1 [Example 436, 3-[(R)-3-(6H-1,3,5,6-Tetraaza-as-indacen-1-yl)-pyrrolidin-1-ylmethyl]-benzonitrile]
23 | 0.189 | 0.00225 | 0.0103 | 0.00114 | N#Cc1ccc(S(=O)(=O)N2CCC(n3cnc4cnc5[nH]ccc5c43)CC2)c(Cl)c1 [Example 446, 3-Chloro-4-[4-(6H-1,3,5,6-tetraaza-as-indacen-1-yl)-piperidine-1-sulfonyl]-benzonitrile]
24 | 0.153 | 0.0112 | 0.0556 | 0.00387 | O=C(CO)N1CCC(n2cnc3cnc4[nH]ccc4c32)CC1 [Example 437, 2-Hydroxy-1-[4-(6H-1,3,5,6-tetraaza-as-indacen-1-yl)-piperidin-1-yl]-ethanone]
25 | 0.15 | 0.0466 | 0.0823 | 0.0144 | c1cc2c(ncc3ncn(C4CCOCC4)c32)[nH]1 [Example 468, 1-(Tetrahydro-pyran-4-yl)-1,6-dihydro-1,3,5,6-tetraaza-as-indacene]
26 | 0.105 | 0.00402 | 0.0188 | 0.00287 | CCS(=O)(=O)N1CCC(n2cnc3cnc4[nH]ccc4c32)CC1 [Example 442, 1-(1-Ethanesulfonyl-piperidin-4-yl)-1,6-dihydro-1,3,5,6-tetraaza-as-indacene]
27 | 0.084 | 0.0392 | 0.0969 | 0.0119 | O=C1CCCN1c1ccc(S(=O)(=O)N2CCC(n3cnc4cnc5[nH]ccc5c43)CC2)cc1 [Example 445, 1-{4-[4-(6H-1,3,5,6-Tetraaza-as-indacen-1-yl)-piperidine-1-sulfonyl]-phenyl}-pyrrolidin-2-one]
28 | 0.0648 | 0.557 | 0.357 | 0.196 | O=c1ccn(Cc2nc3cnc4[nH]ccc4c3n2C2CCOCC2)c(=O)[nH]1 [Example 470, 1-[1-(Tetrahydro-pyran-4-yl)-1,6-dihydro-1,3,5,6-tetraaza-as-indacen-2-ylmethyl]-1H-pyrimidine-2,4-dione]
29 | 0.0326 | 0.00822 | 0.0582 | 0.0035 | O=S(=O)(Cc1ccccc1)N1CCC(n2cnc3cnc4[nH]ccc4c32)CC1 [Example 449, 1-(1-Phenylmethanesulfonyl-piperidin-4-yl)-1,6-dihydro-1,3,5,6-tetraaza-as-indacene]
